The source of these data is ChEMBL document CHEMBL1149601, “Molecular design, chemical synthesis, and biological evaluation of '4-1' pentacyclic aryl/heteroaryl-imidazonaphthalimides” (Bioorg Med Chem, 2007).

SMILES strings stand for the structures. pIC50: −log10 of the molar value.

For the first assay, the system named is HL-60. Briefly: Growth inhibition of human HL60 cells by MTT assay. It is filed as functional, cell-based.
Conditions: not given
`COc1ccc(-c2nc3c(cc4c5c(cccc53)C(=O)N(CCN(C)C)C4=O)[nH]2)cc1OC` gave a pIC50 of 4.98.

As for `CN(C)CCN1C(=O)c2cccc3c2c(cc2[nH]c(-c4ccccc4)nc23)C1=O`, the pIC50 was 6.07.

Compound `Cc1ccc(-c2nc3c(cc4c5c(cccc53)C(=O)N(CCN(C)C)C4=O)[nH]2)cc1` gave a pIC50 of 5.98.

The compound `CN(C)CCN1C(=O)c2cccc3c2c(cc2[nH]c(-c4ccco4)nc23)C1=O` had a negative-log IC50 (pIC50) of 5.20.

As for `COc1ccc(-c2nc3c(cc4c5c(cccc53)C(=O)N(CCN(C)C)C4=O)[nH]2)cc1`, the negative logarithm of the IC50 (pIC50) is 6.34.

For the compound `CN(C)CCN1C(=O)c2cccc3c2c(cc2[nH]c(-c4ccc[nH]4)nc23)C1=O`, the pIC50 is 5.52.

`CN(C)CCN1C(=O)c2cccc3c2c(cc2[nH]c(-c4ccc(O)cc4)nc23)C1=O`: the pIC50 is 4.64.

`COc1cc(-c2nc3c(cc4c5c(cccc53)C(=O)N(CCN(C)C)C4=O)[nH]2)ccc1O`: the pIC50 was 4.30.

`CN(C)CCN1C(=O)c2cccc3c2c(cc2[nH]c(-c4ccc(C(F)(F)F)cc4)nc23)C1=O` gave a pIC50 of 5.31.

Regarding `CN(C)CCN1C(=O)c2cccc3c2c(cc2[nH]c(-c4ccncc4)nc23)C1=O`, the negative-log IC50 (pIC50) was 5.58.

The next assay has as its system HeLa. In words: Growth inhibition of human HeLa cells by MTT assay. It is filed as functional, cell-based.
Conditions: not given
`COc1ccc(-c2nc3c(cc4c5c(cccc53)C(=O)N(CCN(C)C)C4=O)[nH]2)cc1OC` gave a pIC50 of 5.28.

As for `CN(C)CCN1C(=O)c2cccc3c2c(cc2[nH]c(-c4ccccc4)nc23)C1=O`, the negative-log IC50 (pIC50) is 6.40.

As for `Cc1ccc(-c2nc3c(cc4c5c(cccc53)C(=O)N(CCN(C)C)C4=O)[nH]2)cc1`, the negative-log IC50 (pIC50) is 6.49.

Take `CN(C)CCN1C(=O)c2cccc3c2c(cc2[nH]c(-c4ccco4)nc23)C1=O`: the pIC50 was 5.76.

For `COc1ccc(-c2nc3c(cc4c5c(cccc53)C(=O)N(CCN(C)C)C4=O)[nH]2)cc1`, the pIC50 was 6.68.

The compound `CN(C)CCN1C(=O)c2cccc3c2c(cc2[nH]c(-c4ccc[nH]4)nc23)C1=O` had a negative-log IC50 (pIC50) of 5.48.

`CN(C)CCN1C(=O)c2cccc3c2c(cc2[nH]c(-c4ccc(O)cc4)nc23)C1=O` had a pIC50 of 4.88.

For `COc1cc(-c2nc3c(cc4c5c(cccc53)C(=O)N(CCN(C)C)C4=O)[nH]2)ccc1O`, the pIC50 is < 4.00.

In turn, `CN(C)CCN1C(=O)c2cccc3c2c(cc2[nH]c(-c4ccc(C(F)(F)F)cc4)nc23)C1=O` gave a pIC50 of 6.40.

Regarding `CN(C)CCN1C(=O)c2cccc3c2c(cc2[nH]c(-c4ccncc4)nc23)C1=O`, the negative-log IC50 (pIC50) was 5.27. Compared with the last compound, the pIC50 is 1.13 log units lower.

For a further assay, the system named is SMMC-7721. Briefly: Growth inhibition of human SMMC7721 cells by MTT assay. It is filed as functional, cell-based.
Conditions: not given
With `COc1ccc(-c2nc3c(cc4c5c(cccc53)C(=O)N(CCN(C)C)C4=O)[nH]2)cc1OC`, the negative-log IC50 (pIC50) was 6.66.

In turn, `CN(C)CCN1C(=O)c2cccc3c2c(cc2[nH]c(-c4ccccc4)nc23)C1=O` had a negative-log IC50 (pIC50) of 5.47.

In turn, `Cc1ccc(-c2nc3c(cc4c5c(cccc53)C(=O)N(CCN(C)C)C4=O)[nH]2)cc1` showed a negative-log IC50 (pIC50) of 6.24.

Turning to `CN(C)CCN1C(=O)c2cccc3c2c(cc2[nH]c(-c4ccco4)nc23)C1=O`, the pIC50 was 5.89.

For `COc1ccc(-c2nc3c(cc4c5c(cccc53)C(=O)N(CCN(C)C)C4=O)[nH]2)cc1`, the pIC50 is 5.87.

With `CN(C)CCN1C(=O)c2cccc3c2c(cc2[nH]c(-c4ccc[nH]4)nc23)C1=O`, the pIC50 is 5.52.

For `CN(C)CCN1C(=O)c2cccc3c2c(cc2[nH]c(-c4ccc(O)cc4)nc23)C1=O`, the pIC50 was < 4.00.

For `COc1cc(-c2nc3c(cc4c5c(cccc53)C(=O)N(CCN(C)C)C4=O)[nH]2)ccc1O`, the pIC50 is < 4.00.

As to `CN(C)CCN1C(=O)c2cccc3c2c(cc2[nH]c(-c4ccc(C(F)(F)F)cc4)nc23)C1=O`, the pIC50 is 5.79.

The compound `CN(C)CCN1C(=O)c2cccc3c2c(cc2[nH]c(-c4ccncc4)nc23)C1=O` showed a pIC50 of 5.75. The pIC50 values of the last two compounds are within 0.2 log units of each other.

The test system of a further assay is A549. In words: Growth inhibition of human A549 cells by SRB assay. It is filed as functional, cell-based.
Conditions: not given
`COc1ccc(-c2nc3c(cc4c5c(cccc53)C(=O)N(CCN(C)C)C4=O)[nH]2)cc1OC` showed a pIC50 of 6.22.

`CN(C)CCN1C(=O)c2cccc3c2c(cc2[nH]c(-c4ccccc4)nc23)C1=O` had a pIC50 of 5.12.

As for `Cc1ccc(-c2nc3c(cc4c5c(cccc53)C(=O)N(CCN(C)C)C4=O)[nH]2)cc1`, the negative logarithm of the IC50 (pIC50) is 5.26.

`CN(C)CCN1C(=O)c2cccc3c2c(cc2[nH]c(-c4ccco4)nc23)C1=O` gave a pIC50 of 5.14.

`COc1ccc(-c2nc3c(cc4c5c(cccc53)C(=O)N(CCN(C)C)C4=O)[nH]2)cc1`: the pIC50 was 5.67.

Regarding `CN(C)CCN1C(=O)c2cccc3c2c(cc2[nH]c(-c4ccc[nH]4)nc23)C1=O`, the pIC50 is 6.35.

Turning to `CN(C)CCN1C(=O)c2cccc3c2c(cc2[nH]c(-c4ccc(O)cc4)nc23)C1=O`, the pIC50 was 4.75.

In turn, `COc1cc(-c2nc3c(cc4c5c(cccc53)C(=O)N(CCN(C)C)C4=O)[nH]2)ccc1O` showed a pIC50 of 5.29.

As for `CN(C)CCN1C(=O)c2cccc3c2c(cc2[nH]c(-c4ccc(C(F)(F)F)cc4)nc23)C1=O`, the pIC50 is 4.58.

With `CN(C)CCN1C(=O)c2cccc3c2c(cc2[nH]c(-c4ccncc4)nc23)C1=O`, the pIC50 was 4.22.

The subject of a further assay is DNA. In words: Binding affinity to calf thymus DNA. It is filed as nucleic-acid assay. The conditions noted are these: Bos taurus.
Regarding `COc1ccc(-c2nc3c(cc4c5c(cccc53)C(=O)N(CCN(C)C)C4=O)[nH]2)cc1OC`, the ΔTm was 13.3 °C.

As to `CN(C)CCN1C(=O)c2cccc3c2c(cc2[nH]c(-c4ccccc4)nc23)C1=O`, the ΔTm was 7.2 °C.

As for `Cc1ccc(-c2nc3c(cc4c5c(cccc53)C(=O)N(CCN(C)C)C4=O)[nH]2)cc1`, the ΔTm was 6.6 °C.

For the compound `CN(C)CCN1C(=O)c2cccc3c2c(cc2[nH]c(-c4ccco4)nc23)C1=O`, the ΔTm is 6.8 °C.

In the case of `COc1ccc(-c2nc3c(cc4c5c(cccc53)C(=O)N(CCN(C)C)C4=O)[nH]2)cc1`, the ΔTm is 7 °C.

Consider `CN(C)CCN1C(=O)c2cccc3c2c(cc2[nH]c(-c4ccc[nH]4)nc23)C1=O`, for which the ΔTm worked out at 5.7 °C.

`CN(C)CCN1C(=O)c2cccc3c2c(cc2[nH]c(-c4ccc(O)cc4)nc23)C1=O`: the ΔTm is 6.3 °C.

For `COc1cc(-c2nc3c(cc4c5c(cccc53)C(=O)N(CCN(C)C)C4=O)[nH]2)ccc1O`, the ΔTm worked out at 7.8 °C.

As for `CN(C)CCN1C(=O)c2cccc3c2c(cc2[nH]c(-c4ccc(C(F)(F)F)cc4)nc23)C1=O`, the ΔTm stood at 4.8 °C.

Regarding `CN(C)CCN1C(=O)c2cccc3c2c(cc2[nH]c(-c4ccncc4)nc23)C1=O`, the ΔTm was found to be 4.8 °C.

The next assay has as its system P388. Briefly: Growth inhibition of mouse P388 cells by MTT assay. It is filed as functional, cell-based.
Conditions: not given
Take `COc1ccc(-c2nc3c(cc4c5c(cccc53)C(=O)N(CCN(C)C)C4=O)[nH]2)cc1OC`: the pIC50 was 5.97.

`CN(C)CCN1C(=O)c2cccc3c2c(cc2[nH]c(-c4ccccc4)nc23)C1=O`: the pIC50 was 6.07.

Take `Cc1ccc(-c2nc3c(cc4c5c(cccc53)C(=O)N(CCN(C)C)C4=O)[nH]2)cc1`: the pIC50 was 5.26.

`CN(C)CCN1C(=O)c2cccc3c2c(cc2[nH]c(-c4ccco4)nc23)C1=O`: the pIC50 is 6.19.

Consider `COc1ccc(-c2nc3c(cc4c5c(cccc53)C(=O)N(CCN(C)C)C4=O)[nH]2)cc1`, for which the pIC50 is 5.43.

`CN(C)CCN1C(=O)c2cccc3c2c(cc2[nH]c(-c4ccc[nH]4)nc23)C1=O`: the pIC50 was 6.68.

`CN(C)CCN1C(=O)c2cccc3c2c(cc2[nH]c(-c4ccc(O)cc4)nc23)C1=O` gave a pIC50 of 5.96.

`COc1cc(-c2nc3c(cc4c5c(cccc53)C(=O)N(CCN(C)C)C4=O)[nH]2)ccc1O` gave a pIC50 of 5.72. This pIC50 is 0.24 log units lower than that of the compound before.

In turn, `CN(C)CCN1C(=O)c2cccc3c2c(cc2[nH]c(-c4ccc(C(F)(F)F)cc4)nc23)C1=O` had a pIC50 of 6.15.

`CN(C)CCN1C(=O)c2cccc3c2c(cc2[nH]c(-c4ccncc4)nc23)C1=O` showed a pIC50 of 5.25.
